Experimental data from US7598234B2, “Steroid derived antibiotics” (Brigham Young University, priority 1998, dated 2009).
Values after ≈ are worked out from the molar mass of the structure shown.

Tests used:
E. coli (ATCC 10798) [1] = test: Sensitization to erythromycin (concentration lowering the MIC of erythromycin), E. coli (ATCC 10798); assay type: cell-based, Escherichia coli; conditions: for MIC: concentration required to lower the MIC of erythromycin from 70 μg/mL to 1 μg/mL / MBC (with erythromycin): Table 2, E. coli (ATCC 10798); for MBC (with erythromycin): erythromycin sensitization; for (a) Concentration required to lower the MIC of erythromycin from 70 to 1 μg/mL / (b) MBC with 1 μg/mL erythromycin / FIC values with erythromycin: Table 9, Escherichia coli (ATCC 10798)
E. coli (ATCC 10798) [2] = test: Sensitization to novobiocin (concentration lowering the MIC of novobiocin), E. coli (ATCC 10798); assay type: cell-based, Escherichia coli; conditions: for MIC: concentration required to lower the MIC of novobiocin from >500 μg/mL to 1 μg/mL / MBC (with novobiocin): Table 3, E. coli (ATCC 10798); for MBC (with novobiocin): novobiocin sensitization; for (d) Concentration required to lower the MIC of novobiocin from >500 to 1 μg/mL / FIC values with novobiocin: Table 9, Escherichia coli (ATCC 10798)
E. coli (ATCC 25922) = test: Sensitization to erythromycin, E. coli (ATCC 25922); assay type: cell-based, Escherichia coli; conditions: for MIC: concentration required to lower the MIC of erythromycin from 60 μg/mL to 1 μg/mL / MBC (with erythromycin): Table 5, E. coli (ATCC 25922); for MBC (with erythromycin): erythromycin sensitization; for FIC / concentration required to inhibit bacterial growth with antibiotic: Table 11, Escherichia coli ATCC 25922; for FIC: erythromycin (by order); for concentration required to inhibit bacterial growth with antibiotic: erythromycin (by order) at 0.5, 1.0 or 3.0 μg/mL
Procedure, shortened: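 Bacteria grown in TSB with varied cholic acid derivative concentrations; erythromycin (0.5, 1.0 or 3.0 μg/mL) added 15 min later; stationary incubation 37° C, 24 h. Growth read as absorbance at 760 nm, with clear samples subcultured on TSA for CFU/mL; derivative concentration inhibiting growth determined.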

[3] = system: Pseudomonas aeruginosa (ATCC 27853); test: MIC and MBC measurement with Pseudomonas aeruginosa (ATCC 27853); assay type: cell-based
Procedure, shortened: (§1)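 Broth macrodilution, TSB, 37° C./24 h stationary; MIC by absence of A760 turbidity, MBC by TSA subculture CFU/mL against starting inoculum.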

[4] = system: Salmonella typhimurium ATCC 14028; test: MIC and MBC measurement with Salmonella typhimurium ATCC 14028; assay type: cell-based; conditions: Table 10
Procedure, shortened: as §1

[5] = system: Staphylococcus aureus ATCC 25923; test: MIC and MBC measurement with Staphylococcus aureus ATCC 25923; assay type: cell-based; conditions: Table 10; Staphylococcus aureus ATCC 25923
Procedure, shortened: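 Growth inhibition read as absorbance at 760 nm after 24 h stationary culture at 37 °C in tryptic soy broth containing varied compound levels. Turbidity-free samples were plated on TSA overnight and CFU/mL compared with the starting inoculum for bactericidal endpoint; antibiotic co-additions followed compound by 15 min.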

[6] = system: Salmonella typhimurium ATCC 14028; test: Growth inhibition and FIC with novobiocin, Salmonella typhimurium ATCC 14028; assay type: cell-based; conditions: for FIC: Table 12, novobiocin (by order); for concentration required to inhibit bacterial growth with antibiotic: Table 12, novobiocin (by order) at 0.5, 1.0 or 3.0 μg/mL
Procedure: (§2) Alternatively, “fractional inhibitory concentration (FIC)” is also useful for determination of synergy between the compounds of the invention, or the compounds in combination with known antibiotics. FICs can be performed by checkerboard titrations of compounds in one dimension of a microtiter plate, and of antibiotics in the other dimension, for example. The FIC is calculated by looking at the impact of one antibiotic on the MIC of the other and vice versa. […] Preferably, an FIC of less than 0.5 is obtained for synergism. As used herein, FIC can be determined as follows:
(§3) Aliquots of 1 mL of the suspension were added to test tubes containing 1 mL TSB and incrementally varied concentrations of cholic acid derivatives and/or erythromycin or novobiocin. In the sensitization experiments, erythromycin or novobiocin were added 15 minutes later than the cholic acid derivatives. The samples were subjected to stationary incubation at 37° C. for 24 hours. Sample turbidity was determined by measuring absorption at 760 nm (HP 8453 UV-Visible Chemstation, Hewlett Packard). Additionally, an alliquot from each of the samples showing no measurable turbidity was subcultured on TSA plates (alliquots were diluted to provide fewer than 300 CFU). Colonies that grew on the subculture after overnight incubation were counted and the number of CFU/mL in the samples were calculated. The calculated values were compared to the number of CFU/mL in the original inoculum.
(§4) To measure permeabilization, the FIC values for compounds 1, 2, 5, 106, 10, 112, 133, and 134 with erythromycin, novobiocin, and rifampicin were determined. Concentrations of 0.5, 1.0 or 3.0 μg/mL of these antibiotics were used, and the concentrations of the cholic acid derivatives required to inhibit bacterial growth of Gram-negative strains were determined.

[7] = system: Klebsiella pneumonia ATCC 13883; test: Growth inhibition and FIC with rifampicin, Klebsiella pneumoniae ATCC 13883; assay type: cell-based; conditions: for FIC: Table 13, rifampicin (by order); for concentration required to inhibit bacterial growth with antibiotic: Table 13, rifampicin (by order) at 0.5, 1.0 or 3.0 μg/mL
Procedure: as §2, §3, §4

[8] = system: Pseudomonas aeruginosa ATCC 27853; test: Growth inhibition and FIC with rifampicin, Pseudomonas aeruginosa ATCC 27853; assay type: cell-based; conditions: Table 13, Pseudomonas aeruginosa ATCC 27853^b; for FIC: rifampicin (by order); for concentration required to inhibit bacterial growth with antibiotic: rifampicin (by order) at 0.5, 1.0 or 3.0 μg/mL
Procedure: as §2, §3, §4

[9] = system: Salmonella typhimurium ATCC 14028; test: Growth inhibition and FIC with rifampicin, Salmonella typhimurium ATCC 14028; assay type: cell-based; conditions: Table 13, Salmonella typhimurium ATCC 14028^b; for FIC: rifampicin (by order); for concentration required to inhibit bacterial growth with antibiotic: rifampicin (by order) at 0.5, 1.0 or 3.0 μg/mL
Procedure: as §2, §3, §4

[10] = Table 6, P. aureginosa (ATCC 27853)
[11] = Table 10, Pseudomonas aeruginosa ATCC 27853

| SMILES | MIC: concentration required to lower the MIC of erythromycin from 70 μg/mL to 1 μg/mL (E. coli (ATCC 10798) [1]) [µg/mL] | MBC (with erythromycin) (E. coli (ATCC 10798) [1]) [µg/mL] | MIC: concentration required to lower the MIC of novobiocin from >500 μg/mL to 1 μg/mL (E. coli (ATCC 10798) [2]) [µg/mL] | MBC (with novobiocin) (E. coli (ATCC 10798) [2]) [µg/mL] | FIC (E. coli (ATCC 25922)) | concentration required to inhibit bacterial growth with antibiotic (E. coli (ATCC 25922)) [µg/mL] | MBC [3, 11] [µg/mL] | MIC [3, 11] [µg/mL] | MBC [4] [µg/mL] | MIC [4] [µg/mL] | MBC [5] [µg/mL] | MIC [5] [µg/mL] | FIC [6] | concentration required to inhibit bacterial growth with antibiotic [6] [µg/mL] | FIC [7] | concentration required to inhibit bacterial growth with antibiotic [7] [µg/mL] | FIC [8] | concentration required to inhibit bacterial growth with antibiotic [8] [µg/mL] | FIC [9] | concentration required to inhibit bacterial growth with antibiotic [9] [µg/mL] | other results |
| --- | --- | --- | --- | --- | --- | --- | --- | --- | --- | --- | --- | --- | --- | --- | --- | --- | --- | --- | --- | --- | --- |
| C[C@H](CCCN(C)Cc1ccccc1)[C@H]1CC[C@H]2[C@@H]3[C@H](OCCN)C[C@@H]4C[C@H](OCCN)CC[C@]4(C)[C@H]3C[C@H](OCCN)[C@]12C [Compound 1] | 2 | 20 | 20 | 34 | 0.15 | 2.5 | 38 (≈ 60.6 µM) | 26 (≈ 41.5 µM) | >25 | 21 (≈ 33.5 µM) | 5.7 (≈ 9.09 µM) | 3.1 (≈ 4.94 µM) | 0.22 | 4.4 | 0.043 | 0.40 | 0.096 | 1.5 | 0.089 | 0.84 | MIC: concentration required to lower the MIC of erythromycin from 60 μg/mL to 1 μg/mL (E. coli (ATCC 25922)): 2 µg/mL; MBC (with erythromycin) (E. coli (ATCC 25922)): 14 µg/mL; MBC [3, 10]: >50 µg/mL; MIC [3, 10]: 15 µg/mL (≈ 23.9 µM) |
| C[C@H](CCCN(C)Cc1ccccc1)[C@H]1CC[C@H]2[C@@H]3[C@H](OCCCN)C[C@@H]4C[C@H](OCCCN)CC[C@]4(C)[C@H]3C[C@H](OCCCN)[C@]12C [Compound 2] | 1 | 10 | 7 | 16 | 0.078 | 0.23 | >17 | 11 (≈ 16.4 µM) | 16 (≈ 23.9 µM) | 13 (≈ 19.4 µM) | 4.7 (≈ 7.02 µM) | 1.0 (≈ 1.49 µM) | 0.36 | 4.5 | 0.035 | 0.12 | 0.086 | 0.50 | 0.079 | 0.39 | MIC: concentration required to lower the MIC of erythromycin from 60 μg/mL to 1 μg/mL (E. coli (ATCC 25922)): 1 µg/mL; MBC (with erythromycin) (E. coli (ATCC 25922)): 5 µg/mL; MBC [3, 10]: 40 µg/mL (≈ 59.8 µM); MIC [3, 10]: 9 µg/mL (≈ 13.5 µM) |
| C[C@]12CC[C@@H](OCCCN)C[C@H]1C[C@@H](OCCCN)[C@@H]1[C@@H]2C[C@H](OCCCN)[C@]2(C)[C@@H](O)CC[C@@H]12 [Compound 106] |  |  |  |  | 0.073 | 3.2 | 97 (≈ 196 µM) | 85 (≈ 171 µM) | >100 | >100 | 54 (≈ 109 µM) | 8.6 (≈ 17.3 µM) | 0.094 | 8.4 | 0.044 | 1.8 | 0.17 | 11 | 0.064 | 1.4 | (a) Concentration required to lower the MIC of erythromycin from 70 to 1 μg/mL (E. coli (ATCC 10798) [1]): 30 µg/mL; (b) MBC with 1 μg/mL erythromycin (E. coli (ATCC 10798) [1]): 160 µg/mL; FIC values with erythromycin (E. coli (ATCC 10798) [1]): 0.23; (d) Concentration required to lower the MIC of novobiocin from >500 to 1 μg/mL (E. coli (ATCC 10798) [2]): 50 µg/mL; FIC values with novobiocin (E. coli (ATCC 10798) [2]): 0.36 |
| CCCOCCC[C@@H](C)[C@H]1CC[C@H]2[C@@H]3[C@H](OCCCN)C[C@@H]4C[C@H](OCCCN)CC[C@]4(C)[C@H]3C[C@H](OCCCN)[C@]12C [Compound 112] |  |  |  |  | 0.12 | 0.59 | 6.4 (≈ 10.5 µM) | 4.6 (≈ 7.57 µM) | 90 (≈ 148 µM) | 86 (≈ 141 µM) | 4.2 (≈ 6.91 µM) | 0.55 (≈ 0.905 µM) | 0.015 | 0.39 | 0.031 | 0.11 | 0.15 | 0.50 | 0.051 | 0.10 | (a) Concentration required to lower the MIC of erythromycin from 70 to 1 μg/mL (E. coli (ATCC 10798) [1]): 0.4 µg/mL; (b) MBC with 1 μg/mL erythromycin (E. coli (ATCC 10798) [1]): 4.0 µg/mL; FIC values with erythromycin (E. coli (ATCC 10798) [1]): 0.048; (d) Concentration required to lower the MIC of novobiocin from >500 to 1 μg/mL (E. coli (ATCC 10798) [2]): 0.8 µg/mL; FIC values with novobiocin (E. coli (ATCC 10798) [2]): 0.085 |
